# In article PMC9023544, “Ketone-selenoesters as potential anticancer and multidrug resistance modulation agents in 2D and 3D ovarian and breast cancer in vitro models” (Scientific Reports, 2022):
# System: ABC superfamily genes in MCF-7/PAX
# Test: Expression of genes encoding ABC transporters, qPCR
# Assay type: cell-based, human
# Experimental: Based on the fact that compounds K3, K4, K7 sensitized drug-resistant cell lines (HOC/ADR, MCF-7/PAX) and modulated ATPase activity of one from the ABC proteins (P-gp), we verified the potential of these compounds to affect ABC superfamily gene expression. The ovarian and breast cancer cell lines (parental cells and resistant sub-line) were analysed for the expression profile of genes encoding the ABC proteins in the previous works[18]–[20]. […] After 48 h, the effect of compounds alone or in the combination with cytostatics was observed (Supplementary Tables 1, Table 2).
# To determine the impact of selected compounds on the expression of genes encoding ABC transporter, HOC/ADR and MCF-7/PAX cells were seeded for 24 h into 5 cm Petri dishes with DMEM medium at the cell density 1 × 10^5 cells/mL. Afterwards, the cells were washed 1× with PBS and new fresh DMEM supplemented with K3, K4, and K7 (in concentration corresponding to their IC10 value) alone or combined with cytostatics (Adriamycin or paclitaxel in concentration corresponding to their IC25 value) was added. In the experiment, positive and negative control was also included (positive—untreated cells, negative—cells treated only with cytostatics). After 48 h exposure, the cells were washed once with PBS and released from the surface by using the above-mentioned trypsin–EDTA procedure. The enzyme reaction was stopped by medium addition and the cells were centrifuged (3200×g; 10 min, 4 °C). The supernatants were removed and before the next centrifugation, the pellets were resuspended in 1.5 mL of cooled PBS (5400×g; 10 min, 4 °C). After the second washing step, the cells were centrifuged another time (10,000×g; 3 min, 4 °C). Subsequently, 1 mL of Trizol (Invitrogen) was added to the pellets and the compounds were stored − 80 °C.
# The RNA concentration of selenoester treated samples was determined using QuantiT RiboGreen RNA Assay Kit and Infinite M200 plate reader (Tecan, Männedor, Switzerland). The cDNA was synthesized from 0.5 µg of total RNA by RevertAid First Strand Synthesis cDNA Kit (MBI Fermentas, Vilnius, Lithuania). To determine the quality of cDNA, the ubiquitin C gene fragment was amplified. The experiment was performed in 384-well block by using ViiA7 Real-Time PCR System (Life Technologies, Camarillo, California, United States). A master mix contained 0.25 µL of 20× TaqMan Gene Expression Assay, 1 µL of 5× HotFIREPol Probe qPCR Mix Plus, 1.75 µL of RNase free water and 2 µL of 8× diluted cDNA. The final reaction volume was 5 µL. The PCR parameters were as follows: initial hold (50 °C for 2 min), denaturation (95 °C for 10 min), followed by 45 cycles (denaturation at 95 °C for 15 s, annealing at 60 °C for 1 min). After each cycle, the fluorescent signal was determined. For each compound, duplicates were analysed and those with a standard deviation higher than 0.5 Ct were re-analysed. A quantitate real-time PCR was followed by MIQE guidelines. To compare the relative transcript levels of genes, the software REST 2009 (Qiagen, Hilden, Germany) was used.
# Table 2. Effect of selenoesters either on the expression of the ABC gene superfamily in paclitaxel-resistant breast cancer cell line (MCF-7/PAX).
# Gene expression of ABC transporters were estimated using comercial predesigned Taqman Gene Expression Assays (Life technologies). TaqMan Gene Expression Assays are based on 5´ nuclease chemistry, and each assay contains the primer and probe set for target of interest. Taqman assays IDs and GenBank Accession numbers of reference sequencies identifying their location and amplicon lengths are included in the Supplementary Table I. * Relative transcript levels (P-value ) in treated and non-treated cancer cell lines were compared using REST 2009 software.
compound,measurement,setting,value
CC(=O)C[Se]C(=O)c1ccccc1C(F)(F)F [K4],number of ABC genes with altered expression,,31
same,ABCA2 Expression Difference,"IC10 alone, 48 h",0.282
same,ABCA2 Treated vs. Untr.,"IC10 alone, 48 h",DOWN
same,ABCA3 Expression Difference,"IC10 alone, 48 h",0.766
same,ABCA3 Treated vs. Untr.,"IC10 alone, 48 h",DOWN
same,ABCA4 Expression Difference,"IC10 alone, 48 h",40.43
same,ABCA5 Expression Difference,"IC10 alone, 48 h",0.789
same,ABCA5 Treated vs. Untr.,"IC10 alone, 48 h",DOWN
same,ABCA7 Expression Difference,"IC10 alone, 48 h",0.757
same,ABCA7 Treated vs. Untr.,"IC10 alone, 48 h",DOWN
same,ABCA12 Expression Difference,"IC10 alone, 48 h",1.702
same,ABCB1 Expression Difference,"IC10 alone, 48 h",0.568
same,ABCB1 Treated vs. Untr.,"IC10 alone, 48 h",DOWN
same,ABCB2 Expression Difference,"IC10 alone, 48 h",0.467
same,ABCB2 Treated vs. Untr.,"IC10 alone, 48 h",DOWN
same,ABCB3 Expression Difference,"IC10 alone, 48 h",0.323
same,ABCB3 Treated vs. Untr.,"IC10 alone, 48 h",DOWN
same,ABCB6 Expression Difference,"IC10 alone, 48 h",0.524
same,ABCB6 Treated vs. Untr.,"IC10 alone, 48 h",DOWN
same,ABCB7 Expression Difference,"IC10 alone, 48 h",0.214
same,ABCB7 Treated vs. Untr.,"IC10 alone, 48 h",DOWN
same,ABCB8 Expression Difference,"IC10 alone, 48 h",0.683
same,ABCB8 Treated vs. Untr.,"IC10 alone, 48 h",DOWN
same,ABCB9 Expression Difference,"IC10 alone, 48 h",0.639
same,ABCB9 Treated vs. Untr.,"IC10 alone, 48 h",DOWN
same,ABCB10 Expression Difference,"IC10 alone, 48 h",1.163
same,ABCC1 Expression Difference,"IC10 alone, 48 h",0.398
same,ABCC1 Treated vs. Untr.,"IC10 alone, 48 h",DOWN
same,ABCC2 Expression Difference,"IC10 alone, 48 h",0.127
same,ABCC2 Treated vs. Untr.,"IC10 alone, 48 h",DOWN
same,ABCC3 Expression Difference,"IC10 alone, 48 h",26.21
same,ABCC4 Expression Difference,"IC10 alone, 48 h",0.316
same,ABCC4 Treated vs. Untr.,"IC10 alone, 48 h",DOWN
same,ABCC5 Expression Difference,"IC10 alone, 48 h",1.378
same,ABCC6 Expression Difference,"IC10 alone, 48 h",2.041
same,ABCC8 Expression Difference,"IC10 alone, 48 h",1.590
same,ABCC10 Expression Difference,"IC10 alone, 48 h",0.265
same,ABCC10 Treated vs. Untr.,"IC10 alone, 48 h",DOWN
same,ABCD1 Expression Difference,"IC10 alone, 48 h",0.179
same,ABCD1 Treated vs. Untr.,"IC10 alone, 48 h",DOWN
same,ABCD3 Expression Difference,"IC10 alone, 48 h",0.365
same,ABCD3 Treated vs. Untr.,"IC10 alone, 48 h",DOWN
same,ABCD4 Expression Difference,"IC10 alone, 48 h",1.288
same,ABCE1 Expression Difference,"IC10 alone, 48 h",0.795
same,ABCE1 Treated vs. Untr.,"IC10 alone, 48 h",DOWN
same,ABCF1 Expression Difference,"IC10 alone, 48 h",3.646
same,ABCF2 Expression Difference,"IC10 alone, 48 h",0.942
same,ABCF3 Expression Difference,"IC10 alone, 48 h",0.753
same,ABCF3 Treated vs. Untr.,"IC10 alone, 48 h",DOWN
same,ABCG1 Expression Difference,"IC10 alone, 48 h",0.325
same,ABCG1 Treated vs. Untr.,"IC10 alone, 48 h",DOWN
same,ABCG2 Expression Difference,"IC10 alone, 48 h",0.378
same,ABCG2 Treated vs. Untr.,"IC10 alone, 48 h",DOWN
same,ABCG4 Expression Difference,"IC10 alone, 48 h",0.412
same,ABCG4 Treated vs. Untr.,"IC10 alone, 48 h",DOWN
same,decrease of expression of ABCB1 (P-gp) encoding gene,"IC10 alone, 48 h",43%
same,downregulation of expression of ABCC1 (MRP1),"IC10 alone, 48 h",60%
same,downregulation of expression of ABCG2,"IC10 alone, 48 h",62%
CC(=O)C[Se]C(=O)c1ccc(Br)cc1 [K3],number of ABC genes with altered expression,,30
same,ABCA2 Expression Difference,"IC10 alone, 48 h",0.188
same,ABCA2 Treated vs. Untr.,"IC10 alone, 48 h",DOWN
same,ABCA3 Expression Difference,"IC10 alone, 48 h",0.481
same,ABCA3 Treated vs. Untr.,"IC10 alone, 48 h",DOWN
same,ABCA4 Expression Difference,"IC10 alone, 48 h",27.38
same,ABCA5 Expression Difference,"IC10 alone, 48 h",0.559
same,ABCA5 Treated vs. Untr.,"IC10 alone, 48 h",DOWN
same,ABCA7 Expression Difference,"IC10 alone, 48 h",0.5100
same,ABCA7 Treated vs. Untr.,"IC10 alone, 48 h",DOWN
same,ABCA12 Expression Difference,"IC10 alone, 48 h",1.149
same,ABCB1 Expression Difference,"IC10 alone, 48 h",0.401
same,ABCB1 Treated vs. Untr.,"IC10 alone, 48 h",DOWN
same,ABCB2 Expression Difference,"IC10 alone, 48 h",0.354
same,ABCB2 Treated vs. Untr.,"IC10 alone, 48 h",DOWN
same,ABCB3 Expression Difference,"IC10 alone, 48 h",0.235
same,ABCB3 Treated vs. Untr.,"IC10 alone, 48 h",DOWN
same,ABCB6 Expression Difference,"IC10 alone, 48 h",0.340
same,ABCB6 Treated vs. Untr.,"IC10 alone, 48 h",DOWN
same,ABCB7 Expression Difference,"IC10 alone, 48 h",0.143
same,ABCB7 Treated vs. Untr.,"IC10 alone, 48 h",DOWN
same,ABCB8 Expression Difference,"IC10 alone, 48 h",0.488
same,ABCB8 Treated vs. Untr.,"IC10 alone, 48 h",DOWN
same,ABCB9 Expression Difference,"IC10 alone, 48 h",0.422
same,ABCB9 Treated vs. Untr.,"IC10 alone, 48 h",DOWN
same,ABCB10 Expression Difference,"IC10 alone, 48 h",0.922
same,ABCB10 Treated vs. Untr.,"IC10 alone, 48 h",DOWN
same,ABCC1 Expression Difference,"IC10 alone, 48 h",0.272
same,ABCC1 Treated vs. Untr.,"IC10 alone, 48 h",DOWN
same,ABCC2 Expression Difference,"IC10 alone, 48 h",0.076
same,ABCC2 Treated vs. Untr.,"IC10 alone, 48 h",DOWN
same,ABCC3 Expression Difference,"IC10 alone, 48 h",15.79
same,ABCC4 Expression Difference,"IC10 alone, 48 h",0.221
same,ABCC4 Treated vs. Untr.,"IC10 alone, 48 h",DOWN
same,ABCC5 Expression Difference,"IC10 alone, 48 h",1.010
same,ABCC6 Expression Difference,"IC10 alone, 48 h",0.958
same,ABCC6 Treated vs. Untr.,"IC10 alone, 48 h",DOWN
same,ABCC8 Expression Difference,"IC10 alone, 48 h",0.648
same,ABCC8 Treated vs. Untr.,"IC10 alone, 48 h",DOWN
same,ABCC10 Expression Difference,"IC10 alone, 48 h",0.171
same,ABCC10 Treated vs. Untr.,"IC10 alone, 48 h",DOWN
same,ABCD1 Expression Difference,"IC10 alone, 48 h",0.123
same,ABCD1 Treated vs. Untr.,"IC10 alone, 48 h",DOWN
same,ABCD3 Expression Difference,"IC10 alone, 48 h",0.267
same,ABCD3 Treated vs. Untr.,"IC10 alone, 48 h",DOWN
same,ABCD4 Expression Difference,"IC10 alone, 48 h",0.971
same,ABCE1 Expression Difference,"IC10 alone, 48 h",0.552
same,ABCE1 Treated vs. Untr.,"IC10 alone, 48 h",DOWN
same,ABCF1 Expression Difference,"IC10 alone, 48 h",2.388
same,ABCF2 Expression Difference,"IC10 alone, 48 h",0.625
same,ABCF2 Treated vs. Untr.,"IC10 alone, 48 h",DOWN
same,ABCF3 Expression Difference,"IC10 alone, 48 h",0.487
same,ABCF3 Treated vs. Untr.,"IC10 alone, 48 h",DOWN
same,ABCG1 Expression Difference,"IC10 alone, 48 h",0.132
same,ABCG1 Treated vs. Untr.,"IC10 alone, 48 h",DOWN
same,ABCG2 Expression Difference,"IC10 alone, 48 h",0.250
same,ABCG2 Treated vs. Untr.,"IC10 alone, 48 h",DOWN
same,ABCG4 Expression Difference,"IC10 alone, 48 h",0.204
same,ABCG4 Treated vs. Untr.,"IC10 alone, 48 h",DOWN
same,decrease of expression of ABCB1 (P-gp) encoding gene,"IC10 alone, 48 h",60%
same,downregulation of expression of ABCC1 (MRP1),"IC10 alone, 48 h",73%
same,downregulation of expression of ABCG2,"IC10 alone, 48 h",75%
